ChEMBL document CHEMBL1201862, “PubChem BioAssay data set” (2004)
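Dose response: 5 concentrations. Exposure: 48 h. Format: 96-well plates. Endpoint: linear interpolation; highest concentration if not reached. GI50: concentration for 50% inhibition of growth.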 Activity calls are given as the source filed them. Rule as the data show it: active = GI50 up to about 1.1 µM and inactive = higher.

Experiments:
Test in all cases: inhibition of tumour cell growth, NCI panel, 48 h
[1] = test system: LOX IMVI
[2] = test system: IGROV-1
[3] = test system: HT-29
[4] = test system: HL-60
[5] = test system: A498
[6] = test system: CAKI-1
[7] = test system: SF-295
[8] = test system: SN12C
[9] = test system: NCI-H522
[10] = test system: HCT-15
[11] = test system: OVCAR-5
[12] = test system: HOP-62
[13] = test system: SR
[14] = test system: SF-539
[15] = test system: NCI-H23
[16] = test system: UACC-62
[17] = test system: UACC-257
[18] = test system: Malme-3M
[19] = test system: NCI-H460
[20] = test system: RPMI-8226

| Structure (SMILES) | GI50 [1] | GI50 [2] | GI50 [3] | GI50 [4] | GI50 [5] | GI50 [6] | GI50 [7] | GI50 [8] | GI50 [9] | GI50 [10] [µM] | GI50 [11] | GI50 [12] | GI50 [13] | GI50 [14] | GI50 [15] | GI50 [16] | GI50 [17] | GI50 [18] | GI50 [19] | GI50 [20] |
| --- | --- | --- | --- | --- | --- | --- | --- | --- | --- | --- | --- | --- | --- | --- | --- | --- | --- | --- | --- | --- |
| COC(=O)CNS(=O)(=O)c1ccc(-c2c3nc(c(-c4ccc(S(=O)(=O)NCC(=O)OC)cc4)c4ccc([nH]4)c(-c4ccc(S(=O)(=O)NCC(=O)OC)cc4)c4nc(c(-c5ccc(S(=O)(=O)NCC(=O)OC)cc5)c5ccc2[nH]5)C=C4)C=C3)cc1 | > 100 µM (inactive) | > 100 µM (inactive) | > 100 µM (inactive) | > 100 µM (inactive) | 64.9 µM (inactive) | > 100 µM (inactive) | > 100 µM (inactive) | > 100 µM (inactive) | > 100 µM (inactive) | > 100 | > 100 µM (inactive) | > 100 µM (inactive) | > 100 µM (inactive) | > 100 µM (inactive) | > 100 µM (inactive) | 62.2 µM (inactive) | > 100 µM (inactive) | > 100 µM (inactive) | > 100 µM (inactive) | > 100 µM (inactive) |
| COc1ccc(N2C(=O)C(Cl)C2c2cc3cc(Br)ccc3nc2Cl)cc1 (stereo not given) | 0.838 µM (active) | 5.12 µM (inactive) | 4.68 µM (inactive) | 5.98 µM (inactive) | 16.6 µM (inactive) | 6.32 µM (inactive) | 11.9 µM (inactive) | 5.79 µM (inactive) | 3.81 µM (inactive) | 4.71 | 7.96 µM (inactive) | 6.44 µM (inactive) | 1.33 µM (inactive) | 5.07 µM (inactive) | 5.98 µM (inactive) | 4.37 µM (inactive) | 5.2 µM (inactive) | 4.94 µM (inactive) | 5.33 µM (inactive) | 6.59 µM (inactive) |
| CC(=O)OC1C(O)COC(O[C@H]2CC[C@]34C[C@]35CC[C@]3(C)C([C@@]6(C)CC[C@@H](C(C)(C)O)O6)[C@@H](O)C[C@@]3(C)C5C[C@H](OC3OCC(O)C(O)C3O)[C@H]4C2(C)C)C1OC1OCC(O)C(O)C1O (stereo not given in full) | > 100 µM (inactive) | > 100 µM (inactive) | > 100 µM (inactive) | 11.6 µM (inactive) | > 100 µM (inactive) | > 100 µM (inactive) | > 100 µM (inactive) | > 100 µM (inactive) | > 100 µM (inactive) | > 100 | > 100 µM (inactive) | > 100 µM (inactive) | > 100 µM (inactive) | > 100 µM (inactive) | > 100 µM (inactive) | > 100 µM (inactive) | > 100 µM (inactive) | > 100 µM (inactive) | > 100 µM (inactive) | > 100 µM (inactive) |
| CCCCCCCCCCCCOCCCOP(=O)([O-])OCC[N+](C)(C)C | 32.2 µM (inactive) | 6.14 µM (inactive) | 17.3 µM (inactive) | 7.21 µM (inactive) | 30 µM (inactive) | 13.2 µM (inactive) | 35.5 µM (inactive) | 28.5 µM (inactive) | 22.7 µM (inactive) | 25.6 | 21.1 µM (inactive) | 43.2 µM (inactive) | 11.9 µM (inactive) | 31.2 µM (inactive) | 67.6 µM (inactive) | 28.1 µM (inactive) | > 76 µM (inactive) | 64.7 µM (inactive) | 13.9 µM (inactive) | 9.08 µM (inactive) |
| O=C(CCc1cccc(O)c1)NCCCNC(=O)CCc1cccc(O)c1 | > 100 µM (inactive) | > 100 µM (inactive) | > 100 µM (inactive) | < 0.01 µM (active) | > 100 µM (inactive) | > 100 µM (inactive) | > 100 µM (inactive) | > 100 µM (inactive) | > 100 µM (inactive) | > 100 | > 100 µM (inactive) | > 100 µM (inactive) | > 100 µM (inactive) | > 100 µM (inactive) | > 100 µM (inactive) | > 100 µM (inactive) | > 100 µM (inactive) | > 100 µM (inactive) | > 100 µM (inactive) | > 100 µM (inactive) |
